The results in this text go back to ChEMBL document CHEMBL1144319, “Design, synthesis, and evaluation of oxazole transthyretin amyloidogenesis inhibitors” (Bioorg Med Chem Lett, 2005).

This assay has as its target Transthyretin (Homo sapiens) (UniProt P02766). The experiment in a line: Binding selectivity to transthyretin in human blood plasma after 24 hincubation with 10.8 uM inhibitor. Type of assay: cell-free.

Regarding `O=C(O)c1nc(-c2cc(Cl)cc(Cl)c2)oc1C(F)(F)F`, the Molar equivalence bound is 0.68.

With `CCc1oc(-c2cc(Cl)cc(Cl)c2)nc1C(=O)O`, the Molar equivalence bound is 0.49.
